Where a SMILES comes first, the peptide text is derived from it. Bridges are numbered along the chain shown (N, C = ends).
System: healthy men
Assay: Indirect calorimetry and renal urea excretion
Assay type: in vivo, human
Conditions: iv LEAP2 ~25 pmol/kg/min
Protocol: Resting energy expenditure and respiratory quotient were measured by indirect calorimetry (Vyntus CPX Canopy; Vyaire Medical, Höchberg, Germany) for 15 min at timepoints −25 (baseline), 45, 120 and 240 min, with the participants awake and in a supine position from 5 min prior to each test. Participants rested in a hospital bed for 30 min before the first test and throughout the experimental day. The gas and flow analyzers were calibrated before each test. The first 5 min and the last minute of data collection were subsequently discarded, and the mean of a 5-min steady state period defined as a coefficient of variation <10% for VO2 and CO2 was used to estimate resting energy expenditure and respiratory quotient for each test. The 5-min steady state period with the lowest resting energy expenditure and with a respiratory quotient between 0.7 and 1.0 was considered. In a few cases without a 5-min steady state period, a 4-min steady state period was considered.[35]^,[36] In the present study, a steady state period of 5 min was successfully reached in […] out of 160 tests. One participant was excluded from the subsequent data analysis due to no steady state period in any of the four tests during an experimental day. A 4-min steady state period was considered in six cases reaching a total of 23 excluded tests from the data analysis.
To assess the amount of protein breakdown after the liquid mixed meal, urine samples were collected at timepoints 135 and 255 min for measurement of renal urea excretion and total urine production. At timepoint 60 min, 5 min prior to ingestion of the liquid mixed meal, participants were asked to empty their urinary bladder.

CC[C@H](C)[C@@H]1NC(=O)[C@@H]2CSSC[C@@H](C(=O)N[C@@H](CO)C(=O)N[C@@H](CC(C)C)C(=O)N[C@@H](CO)C(=O)N[C@H](C(=O)N[C@@H](C)C(=O)N[C@@H](CCC(N)=O)C(=O)N[C@@H](CCC(=O)O)C(=O)O)C(C)C)NC(=O)[C@H](CCCNC(=N)N)NC(=O)[C@H](CCCNC(=N)N)NC(=O)[C@H](CCCCN)NC(=O)[C@H](CCCNC(=N)N)NC(=O)[C@H](CSSC[C@H](NC(=O)[C@H](CO)NC(=O)[C@H](C)NC(=O)CNC(=O)[C@@H](NC(=O)[C@@H]3CCCN3C(=O)[C@H](CCCNC(=N)N)NC(=O)[C@H](CC(C)C)NC(=O)[C@H](CO)NC(=O)[C@@H](NC(=O)CNC(=O)[C@H](CCCNC(=N)N)NC(=O)[C@H](Cc3c[nH]c4ccccc34)NC(=O)[C@H](Cc3ccccc3)NC(=O)[C@@H]3CCCN3C(=O)[C@@H](NC(=O)[C@@H](N)CCSC)[C@@H](C)O)C(C)C)[C@@H](C)CC)C(=O)N[C@@H](CCCNC(=N)N)C(=O)N[C@@H](CC(=O)O)C(=O)N[C@@H](CC(=O)O)C(=O)N[C@@H](CO)C(=O)N[C@@H](CCC(=O)O)C(=O)N2)NC(=O)[C@H](CC(C)C)NC(=O)[C@H](CCCNC(=N)N)NC(=O)[C@H]([C@@H](C)O)NC1=O [LEAP2, liver-expressed antimicrobial peptide 2] (H-MTPFWRGVSLRPIGASCRDDSECITRLCRKRRCSLSVAQE-OH; disulfide 17-28, 23-33 (inferred); N-terminus and C-terminus assumed)
resting energy expenditure, LEAP2 vs placebo (indirect calorimetry): no differences | respiratory quotient, LEAP2 vs placebo (indirect calorimetry, data not shown): no differences | renal urea excretion, LEAP2 vs placebo (two consecutive time points (135 and 255 min) or total, data not shown): no difference
